Results on 2 molecules are retold here after publication PMC3420979 (Bioorganic & medicinal chemistry letters, 2012).

One test has as its target T1, CpCDPK1 (Cryptosporidium parvum, UniProt A3FQ16).
T1 sequence (A3FQ16 1-538): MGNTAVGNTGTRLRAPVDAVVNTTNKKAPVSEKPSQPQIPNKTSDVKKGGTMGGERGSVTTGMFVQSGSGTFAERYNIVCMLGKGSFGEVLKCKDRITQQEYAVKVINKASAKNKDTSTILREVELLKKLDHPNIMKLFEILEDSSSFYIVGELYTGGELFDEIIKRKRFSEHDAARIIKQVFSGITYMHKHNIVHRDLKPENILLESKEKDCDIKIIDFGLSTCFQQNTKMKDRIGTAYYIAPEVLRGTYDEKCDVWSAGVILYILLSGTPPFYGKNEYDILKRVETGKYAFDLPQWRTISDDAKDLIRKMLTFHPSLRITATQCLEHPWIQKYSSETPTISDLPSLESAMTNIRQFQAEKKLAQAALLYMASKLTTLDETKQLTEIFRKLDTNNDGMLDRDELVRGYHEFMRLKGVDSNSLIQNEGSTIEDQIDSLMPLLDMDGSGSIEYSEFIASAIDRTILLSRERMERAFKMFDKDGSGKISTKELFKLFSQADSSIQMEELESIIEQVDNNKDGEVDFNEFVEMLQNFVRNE
As to the kind of experiment: Enzyme inhibition assay, CpCDPK1. The class given is biochemical. The following applies: IC50 against CpCDPK1 (nM), stated for both parasite CDPK1s.

Another test addresses Abl (Homo sapiens, UniProt P00519). The test is described as follows: Human kinase inhibition, Abl. The class given is biochemical. The settings on record: parasite CDPK1s versus human Src or Abl.

Molecules are shown by their SMILES.

Abl, sequence (P00519 whole entry): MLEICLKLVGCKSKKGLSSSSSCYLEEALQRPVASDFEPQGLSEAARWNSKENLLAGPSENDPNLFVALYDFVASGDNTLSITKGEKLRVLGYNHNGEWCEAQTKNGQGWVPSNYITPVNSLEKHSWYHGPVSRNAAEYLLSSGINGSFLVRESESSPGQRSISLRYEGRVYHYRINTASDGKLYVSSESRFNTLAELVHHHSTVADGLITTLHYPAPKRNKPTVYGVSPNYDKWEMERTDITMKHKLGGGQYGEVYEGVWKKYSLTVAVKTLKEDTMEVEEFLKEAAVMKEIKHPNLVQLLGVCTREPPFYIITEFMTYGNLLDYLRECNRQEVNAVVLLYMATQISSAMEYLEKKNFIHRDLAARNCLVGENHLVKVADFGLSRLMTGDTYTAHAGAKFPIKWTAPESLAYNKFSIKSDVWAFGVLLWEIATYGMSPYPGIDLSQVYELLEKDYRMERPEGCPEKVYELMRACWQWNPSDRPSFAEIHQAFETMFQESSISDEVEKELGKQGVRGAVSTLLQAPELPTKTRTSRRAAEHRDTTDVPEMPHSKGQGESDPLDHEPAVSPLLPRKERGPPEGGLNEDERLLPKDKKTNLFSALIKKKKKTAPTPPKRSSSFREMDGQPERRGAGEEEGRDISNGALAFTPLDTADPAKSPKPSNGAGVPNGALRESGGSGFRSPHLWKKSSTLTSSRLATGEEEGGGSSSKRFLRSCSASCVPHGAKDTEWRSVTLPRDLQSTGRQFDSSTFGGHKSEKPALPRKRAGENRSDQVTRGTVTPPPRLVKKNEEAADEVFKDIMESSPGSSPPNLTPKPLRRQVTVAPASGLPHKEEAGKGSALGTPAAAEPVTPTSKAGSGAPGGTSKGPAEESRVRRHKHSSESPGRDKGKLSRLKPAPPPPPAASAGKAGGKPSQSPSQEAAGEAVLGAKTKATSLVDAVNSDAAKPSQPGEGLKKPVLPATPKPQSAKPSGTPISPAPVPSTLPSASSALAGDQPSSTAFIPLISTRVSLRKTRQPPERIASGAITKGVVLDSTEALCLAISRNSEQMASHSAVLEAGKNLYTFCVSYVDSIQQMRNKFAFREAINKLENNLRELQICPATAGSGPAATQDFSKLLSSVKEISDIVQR

Consider `Nc1nc2ccc(C(=O)c3ccccc3)cc2n1CCC1CCNCC1` [7c], for which the IC50 on CpCDPK1 was less than 50 nM. For the same molecule, at Abl, the “selectivity index over human Src or Abl” value is listed as more than 200 fold.

In turn, `CN1CCN(CCn2c(N)nc3ccc(C(=O)c4ccccc4)cc32)CC1` [7p] came in with an IC50 on CpCDPK1 of less than 50 nM. In addition, on Abl, the “selectivity index over human Src or Abl” value is listed as more than 200 fold.

Usually IC50 stands for the point on the concentration scale where inhibition reaches its midpoint.
